Reference: US20100298141A1, “SUBSTITUTED PYRIDINE N-OXIDE HERBICIDES” (E. I. DU PONT DE NEMOURS AND COMPANY, priority 2007, published 2010)

Key:
rice = test: Test B flooded paddy test; assay type: in vivo, Oryza sativa; settings: Flood, 250 g ai/ha, 13 to 15 days; scale 0 to 100, 0 no effect, 100 complete control
Source text: (§1) At time of treatment, test pots were flooded to 3 cm above the soil surface, treated by application of test compounds directly to the paddy water, and then maintained at that water depth for the duration of the test. Treated plants and controls were maintained in a greenhouse for 13 to 15 days, after which time all species were compared to controls and visually evaluated. […] A dash (-) response means no test result.

umbrella sedge = test: Test B flooded paddy test; assay type: in vivo, Cyperus difformis; settings: Flood, 250 g ai/ha, 13 to 15 days; scale 0 to 100, 0 no effect, 100 complete control
Source text: as §1

annual bluegrass = test: Test D preemergence test; assay type: in vivo, Poa annua; settings: scale 0 to 100
How it was run: (§2)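 Preemergence application to planted seeds; compounds in non-phytotoxic solvent blend plus surfactant. Dash = not tested.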

downy bromegrass = test: Test D preemergence test; assay type: in vivo, Bromus tectorum; settings: scale 0 to 100
How it was run: as §2

field violet = test: Test D preemergence test; assay type: in vivo, Viola arvensis; settings: scale 0 to 100
How it was run: as §2

Italian ryegrass = test: Test D preemergence test; assay type: in vivo, Lolium multiflorum; settings: scale 0 to 100
How it was run: as §2

littleseed canarygrass = test: Test D preemergence test; assay type: in vivo, Phalaris minor; settings: scale 0 to 100
How it was run: as §2

spring wheat = test: Test D preemergence test; assay type: in vivo, Triticum aestivum; settings: scale 0 to 100
How it was run: as §2

winter wheat = test: Test D preemergence test; assay type: in vivo, Triticum aestivum; settings: scale 0 to 100
How it was run: as §2

wild oat = test: Test D preemergence test; assay type: in vivo, Avena fatua; settings: scale 0 to 100
How it was run: as §2

winter barley = test: Test D preemergence test; assay type: in vivo, Hordeum vulgare
How it was run: as §2

broadleaf signalgrass = test: Test G preemergence test; assay type: in vivo, Brachiaria platyphylla; settings: scale 0 to 100
cotton = test: Test G preemergence test; assay type: in vivo, Gossypium hirsutum; settings: scale 0 to 100
eastern black nightshade = test: Test G preemergence test; assay type: in vivo, Solanum ptycanthum; settings: scale 0 to 100
fall panicum = test: Test G preemergence test; assay type: in vivo, Panicum dichotomiflorum; settings: scale 0 to 100
giant foxtail = test: Test G preemergence test; assay type: in vivo, Setaria faberii; settings: scale 0 to 100
goosegrass = test: Test G preemergence test; assay type: in vivo, Eleusine indica; settings: scale 0 to 100
itchgrass = test: Test G preemergence test; assay type: in vivo, Rottboellia cochinchinensis; settings: scale 0 to 100
large crabgrass = test: Test G preemergence test; assay type: in vivo, Digitaria sanguinalis; settings: scale 0 to 100
millet = test: Test G preemergence test; assay type: in vivo, Panicum miliaceum; settings: scale 0 to 100
millet foxtail = test: Test G preemergence test; assay type: in vivo, Setaria italica; settings: scale 0 to 100
sorghum = test: Test G preemergence test; assay type: in vivo, Sorghum vulgare; settings: scale 0 to 100
yellow foxtail = test: Test G preemergence test; assay type: in vivo, Pennisetum glaucum; settings: scale 0 to 100
yellow nutsedge = test: Test G preemergence test; assay type: in vivo, Cyperus esculentus; settings: scale 0 to 100
woolly cupgrass = test: Test G preemergence test; assay type: in vivo, Eriochloa villosa; settings: scale 0 to 100

## Cn1nc(C(F)(F)F)c(CS(=O)(=O)c2cccc[n+]2[O-])c1OC(F)F [Compound 4]
rice
  Plant response rating, Rice, Transplanted: 90
Umbrella sedge
  Plant response rating, Umbrella Sedge: 100
Annual bluegrass; 31 g ai/ha
  Plant response rating, Bluegrass: 50
Annual bluegrass; 62 g ai/ha
  Plant response rating, Bluegrass: 50
Annual bluegrass; 125 g ai/ha
  Plant response rating, Bluegrass: 80
Annual bluegrass; 250 g ai/ha
  Plant response rating, Bluegrass: 100
Downy bromegrass; 31 g ai/ha
  Plant response rating, Bromegrass, Downy: 30
Downy bromegrass; 62 g ai/ha
  Plant response rating, Bromegrass, Downy: 30
Downy bromegrass; 125 g ai/ha
  Plant response rating, Bromegrass, Downy: 30
Downy bromegrass; 250 g ai/ha
  Plant response rating, Bromegrass, Downy: 30
Field violet; 31 g ai/ha
  Plant response rating, Field Violet: 0
Field violet; 62 g ai/ha
  Plant response rating, Field Violet: 0
Field violet; 125 g ai/ha
  Plant response rating, Field Violet: 0
Field violet; 250 g ai/ha
  Plant response rating, Field Violet: 10
Italian ryegrass; 31 g ai/ha
  Plant response rating, Ryegrass, Italian: 20
Italian ryegrass; 62 g ai/ha
  Plant response rating, Ryegrass, Italian: 20
Italian ryegrass; 125 g ai/ha
  Plant response rating, Ryegrass, Italian: 20
Italian ryegrass; 250 g ai/ha
  Plant response rating, Ryegrass, Italian: 50
Littleseed canarygrass; 31 g ai/ha
  Plant response rating, Canarygrass: 30
Littleseed canarygrass; 62 g ai/ha
  Plant response rating, Canarygrass: 100
Littleseed canarygrass; 125 g ai/ha
  Plant response rating, Canarygrass: 100
Littleseed canarygrass; 250 g ai/ha
  Plant response rating, Canarygrass: 100
Spring wheat; 31 g ai/ha
  Plant response rating, Wheat, Spring: 20
Spring wheat; 62 g ai/ha
  Plant response rating, Wheat, Spring: 30
Spring wheat; 125 g ai/ha
  Plant response rating, Wheat, Spring: 30
Spring wheat; 250 g ai/ha
  Plant response rating, Wheat, Spring: 30
Winter wheat; 31 g ai/ha
  Plant response rating, Wheat, Winter: 30
Winter wheat; 62 g ai/ha
  Plant response rating, Wheat, Winter: 20
Winter wheat; 125 g ai/ha
  Plant response rating, Wheat, Winter: 25
Winter wheat; 250 g ai/ha
  Plant response rating, Wheat, Winter: 45
Wild oat; 31 g ai/ha
  Plant response rating, Oat, Wild: 25
Wild oat; 62 g ai/ha
  Plant response rating, Oat, Wild: 30
Wild oat; 125 g ai/ha
  Plant response rating, Oat, Wild: 30
Wild oat; 250 g ai/ha
  Plant response rating, Oat, Wild: 35
Winter barley; Preemergence, 62 g ai/ha, scale 0 to 100
  Plant response rating, Barley: 30
Winter barley; Preemergence, 125 g ai/ha, scale 0 to 100
  Plant response rating, Barley: 30
Winter barley; Preemergence, 31 g ai/ha, scale 0 to 100
  Plant response rating, Barley: 30
Winter barley; preemergence, 250 g ai/ha, scale 0 (no effect) to 100 (complete control)
  Plant response rating, Barley: 35
Broadleaf signalgrass; 31 g ai/ha
  Plant response rating, Signalgrass: 0
Broadleaf signalgrass; 62 g ai/ha
  Plant response rating, Signalgrass: 20
Broadleaf signalgrass; 125 g ai/ha
  Plant response rating, Signalgrass: 80
Broadleaf signalgrass; 250 g ai/ha
  Plant response rating, Signalgrass: 90
cotton; 31 g ai/ha
  Plant response rating, Cotton: 5
cotton; 62 g ai/ha
  Plant response rating, Cotton: 25
cotton; 125 g ai/ha
  Plant response rating, Cotton: 0
cotton; 250 g ai/ha
  Plant response rating, Cotton: 10
Eastern black nightshade; 31 g ai/ha
  Plant response rating, Nightshade: 20
Eastern black nightshade; 62 g ai/ha
  Plant response rating, Nightshade: 30
Eastern black nightshade; 125 g ai/ha
  Plant response rating, Nightshade: 90
Eastern black nightshade; 250 g ai/ha
  Plant response rating, Nightshade: 100
Fall panicum; 31 g ai/ha
  Plant response rating, Fall Panicum: 20
Fall panicum; 62 g ai/ha
  Plant response rating, Fall Panicum: 20
Fall panicum; 125 g ai/ha
  Plant response rating, Fall Panicum: 60
Fall panicum; 250 g ai/ha
  Plant response rating, Fall Panicum: 100
Giant foxtail; 31 g ai/ha
  Plant response rating, Foxtail, Giant: 40
Giant foxtail; 62 g ai/ha
  Plant response rating, Foxtail, Giant: 50
Giant foxtail; 125 g ai/ha
  Plant response rating, Foxtail, Giant: 90
Giant foxtail; 250 g ai/ha
  Plant response rating, Foxtail, Giant: 100
goosegrass; 31 g ai/ha
  Plant response rating, Goosegrass: 80
goosegrass; 62 g ai/ha
  Plant response rating, Goosegrass: 95
goosegrass; 125 g ai/ha
  Plant response rating, Goosegrass: 100
goosegrass; 250 g ai/ha
  Plant response rating, Goosegrass: 100
itchgrass; 31 g ai/ha
  Plant response rating, Itchgrass: 0
itchgrass; 62 g ai/ha
  Plant response rating, Itchgrass: 20
itchgrass; 125 g ai/ha
  Plant response rating, Itchgrass: 30
itchgrass; 250 g ai/ha
  Plant response rating, Itchgrass: 60
Large crabgrass; 31 g ai/ha
  Plant response rating, Crabgrass, Large: 85
Large crabgrass; 62 g ai/ha
  Plant response rating, Crabgrass, Large: 80
Large crabgrass; 125 g ai/ha
  Plant response rating, Crabgrass, Large: 95
Large crabgrass; 250 g ai/ha
  Plant response rating, Crabgrass, Large: 100
millet; 31 g ai/ha
  Plant response rating, Millet: 20
millet; 62 g ai/ha
  Plant response rating, Millet: 40
millet; 125 g ai/ha
  Plant response rating, Millet: 40
millet; 250 g ai/ha
  Plant response rating, Millet: 100
Millet foxtail; 31 g ai/ha
  Plant response rating, Foxtail, Millet: 30
Millet foxtail; 62 g ai/ha
  Plant response rating, Foxtail, Millet: 40
Millet foxtail; 125 g ai/ha
  Plant response rating, Foxtail, Millet: 70
Millet foxtail; 250 g ai/ha
  Plant response rating, Foxtail, Millet: 100
sorghum; 31 g ai/ha
  Plant response rating, Sorghum: 10
sorghum; 62 g ai/ha
  Plant response rating, Sorghum: 25
sorghum; 125 g ai/ha
  Plant response rating, Sorghum: 35
sorghum; 250 g ai/ha
  Plant response rating, Sorghum: 40
Yellow foxtail; 31 g ai/ha
  Plant response rating, Foxtail, Yellow: 100
Yellow foxtail; 62 g ai/ha
  Plant response rating, Foxtail, Yellow: 100
Yellow foxtail; 125 g ai/ha
  Plant response rating, Foxtail, Yellow: 100
Yellow foxtail; 250 g ai/ha
  Plant response rating, Foxtail, Yellow: 100
Yellow nutsedge; 31 g ai/ha
  Plant response rating, Nutsedge, Yellow: 0
Yellow nutsedge; 62 g ai/ha
  Plant response rating, Nutsedge, Yellow: 0
Yellow nutsedge; 125 g ai/ha
  Plant response rating, Nutsedge, Yellow: 15
Yellow nutsedge; 250 g ai/ha
  Plant response rating, Nutsedge, Yellow: 40
Woolly cupgrass; 31 g ai/ha
  Plant response rating, Cupgrass, Woolly: 0
Woolly cupgrass; 62 g ai/ha
  Plant response rating, Cupgrass, Woolly: 75
Woolly cupgrass; 125 g ai/ha
  Plant response rating, Cupgrass, Woolly: 75
Woolly cupgrass; 250 g ai/ha
  Plant response rating, Cupgrass, Woolly: 100

## Cn1nc(C(F)(F)F)c(C[S+]([O-])c2ccc(Cl)c[n+]2[O-])c1OC(F)F (centres unmarked) [Compound 6]
rice
  Plant response rating, Rice, Transplanted: 60
Umbrella sedge
  Plant response rating, Umbrella Sedge: 100

## CC(c1c(C(F)(F)F)nn(C)c1OC(F)F)S(=O)(=O)c1cccc[n+]1[O-] (centres unmarked) [Compound 5]
rice
  Plant response rating, Rice, Transplanted: 70
Umbrella sedge
  Plant response rating, Umbrella Sedge: 100
